Laboratory results reported in US20230331737A1, “MTORC1 MODULATORS AND USES THEREOF” (Aeovian Pharmaceuticals, Inc., priority 2020, published 2023).

Assays:
mTORC2 = mTORC2 (Homo sapiens, UniProt P42345+P62942); experiment: mTORC2 inhibition in PC3 cells, AlphaLISA of pAKT pS473 levels
FKBP12 = FKBP12 (Homo sapiens, UniProt P62942); experiment: SPR assay to determine binding affinity to FKBP12 (direct binding); settings: immobilized biotinylated avi-FKBP12, single-cycle kinetics
Description: SPR Assay to Determine Binding Affinity to FKBP12.
Biotinylated avi-FKBP12 was immobilized on a streptavidin chip (Cytiva Series S SA) using a Biacore 8K or 8k+ (Cytiva). […] Test compounds described in Table 11 were diluted in DMSO to 100× working concentration. Each test compound was 100-fold diluted in 50 mM HEPES pH 7.5, 150 mM NaCl, 2 mM MgCl2, 1 mM DTT, 0.05% Tween-20 and a serial dilution prepared (9 concentrations, 3-fold dilutions, 0.08-500 nM). […] The compound dilutions were then injected at 100 uL/min for 120 seconds contact time in sequence with increasing concentrations. Dissociation was monitored for 3600 seconds. 50 mM HEPES pH 7.5, 150 mM NaCl, 2 mM MgCl2, 1 mM DTT, 0.05% Tween-20, 1% DMSO was used as running buffer. The single-cycle kinetics data were fit to a 1:1 binding model to measure the association rate ka (1/Ms), the dissociation rate kd (1/s) and the affinity Kd (M).

[1] = molecular target: FKBP12 ternary complex with FRB (Homo sapiens, UniProt P42345+P62942); experiment: SPR assay to characterize ternary complex formation with FKBP12 (FRB injected over compound-saturated FKBP12); format: binding; settings: FRB dilutions with 100 nM test compound over immobilized FKBP12
Description: Biotinylated avi-FKBP12 was immobilized on a streptavidin chip (Cytiva Series S SA) using a Biacore 8K or 8k+ (Cytiva). To achieve an immobilization level of 100 RU, 0.3 μg/ml biotinylated avi-FKBP12 were injected for 80 sec at a flow rate of 10 μl/min. Serial dilution of FRB was prepared (12 concentrations, 3-fold dilutions, 0.00011-20 μM) and supplemented with 100 nM of a test compound. A-B-A injection mode was used to ensure saturation immobilized FKBP12 with respective test compound. 100 nM solution of the respective test compound was injected before FRB injection for 120 sec and during dissociation for 420 sec. The FRB dilutions were then injected 120 seconds contact time with increasing concentrations. Rapamycin was used as reference sample. 50 mM HEPES pH 7.5, 150 mM NaCl, 2 mM MgCl2, 1 mM DTT, 0.05% Tween-20, 1% DMSO was used as running buffer at a flow rate of 30 μl/min. The multi-cycle kinetics data were fit to a 1:1 binding model to measure the association rate ka (1/Ms), the dissociation rate kd (1/s) and the affinity Kd (M). In case of fast association and dissociation, steady state affinity analysis following the law of mass action was used to determine the affinity Kd (M).

mTORC1 = molecular target: T1, mTORC1 (Homo sapiens, UniProt P42345+P62942); experiment: mTORC1 inhibition in PC-3 cells, AlphaLISA of p70S6K pT389 levels; format: cell-based; settings: mTORC1 as measured by inhibition of p70S6K pT389 levels, read-out: mTROC1 IC50
T1 construct: endogenous in cells; host or cells: PC-3 cells
Description: mTORC1 inhibition was determined via analysis of phosphorylation levels of Phospho-p70 S6 kinase (p70S6K pT389) and Phospho-S6 Ribosomal Protein (pRPS6 pS240/pS244) with the corresponding AlphaLISA kits (PerkinElmer Alpha SF Ultra™ Multiplex phospho (Thr389)/total p70 S6K Assay Kit (Eu/Tb) and AlphaLISA SF Ultra™ p-Ribosomal Protein S6 (Ser240/244) Assay Kit).
%−activity=100*((Sample−Low control)/(High control−Low control))

FKBP12, sequence (P62942 whole entry, species assumed): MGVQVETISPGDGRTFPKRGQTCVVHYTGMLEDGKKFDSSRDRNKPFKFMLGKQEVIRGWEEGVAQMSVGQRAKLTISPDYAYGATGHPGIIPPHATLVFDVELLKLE
mTORC2, sequence (P62942 2-108 limits assumed, other chains not shown): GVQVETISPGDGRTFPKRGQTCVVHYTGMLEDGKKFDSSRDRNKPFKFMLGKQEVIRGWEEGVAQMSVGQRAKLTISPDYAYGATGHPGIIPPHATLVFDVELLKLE

Compound | IC50 (mTORC2) [nM] | Kd (FKBP12) [nM] | Kd [1] [nM] | IC50 (mTORC1) [nM]
CO[C@H]1C[C@@H]2CC[C@@H](C)[C@@](O)(O2)C(=O)C(=O)N2CCCC[C@H]2C(=O)O[C@H]([C@H](C)C[C@@H]2CC[C@@H](OCCO)[C@H](OC)C2)CC(=O)[C@H](C)/C=C(\C)[C@@H](O)[C@@H](OC)C(=O)[C@H](C)C[C@H](C)/C=C/C=C/C=C/1C [everolimus] | < 10 | – | – | –
COCCO[C@H]1C[C@@H]2CC[C@@H](C)[C@@](O)(O2)C(=O)C(=O)N2CCCC[C@H]2C(=O)O[C@H]([C@H](C)C[C@@H]2CC[C@@H](OCCO)[C@H](OC)C2)CC(=O)[C@H](C)/C=C(\C)[C@@H](O)[C@@H](OC)C(=O)[C@H](C)C[C@H](C)/C=C/C=C/C=C/1C [Compound 439, (1R,9S,12S,15R,16E,18R,19R,21R,23S,24E,26E,28E,30S,32S,35R)-1,18-dihydroxy-12-[(1R)-2-[(1S,3R,4R)-4-(2-hydroxyethoxy)-3-methoxy-cyclohexyl]-1-methyl-ethyl]-19-methoxy-30-(2-methoxyethoxy)-15,17,21,23,29,35-hexamethyl-11,36-dioxa-4-azatricyclo[30.3.1.0^4,9]hexatriaconta-16,24,26,28-tetraene-2,3,10,14,20-pentone] | – | 0.3 to 1 | < 500 | < 0.8
COCCO[C@@H]1C[C@@H]2CC[C@@H](C)[C@@](O)(O2)C(=O)C(=O)N2CCCC[C@H]2C(=O)O[C@H]([C@H](C)C[C@@H]2CC[C@@H](OCCO)[C@H](OC)C2)CC(=O)[C@H](C)/C=C(\C)[C@@H](O)[C@@H](OC)C(=O)[C@H](C)C[C@H](C)/C=C/C=C/C=C/1C [Compound 40, (1R,9S,12S,15R,16E,18R,19R,21R,23S,24E,26E,28E,30R,32S,35R)-1,18-dihydroxy-12-[(1R)-2-[(1S,3R,4R)-4-(2-hydroxyethoxy)-3-methoxy-cyclohexyl]-1-methyl-ethyl]-19-methoxy-30-(2-methoxyethoxy)-15,17,21,23,29,35-hexamethyl-11,36-dioxa-4-azatricyclo[30.3.1.0^4,9]hexatriaconta-16,24,26,28-tetraene-2,3,10,14,20-pentone] | – | > 1 | 500 to 1100 | > 1.5
CO[C@@H]1C[C@H](C[C@@H](C)[C@@H]2CC(=O)[C@H](C)/C=C(\C)[C@@H](O)[C@@H](OC)C(=O)[C@H](C)C[C@H](C)/C=C/C=C/C=C(\C)[C@@H](OCC3COC3)C[C@@H]3CC[C@@H](C)[C@@](O)(O3)C(=O)C(=O)N3CCCC[C@H]3C(=O)O2)CC[C@H]1O [Compound 521, (1R,9S,12S,15R,16E,18R,19R,21R,23S,24E,26E,28E,30S,32S,35R)-1,18-dihydroxy-12-[(2R)-1-[(1S,3R,4R)-4-hydroxy-3-methoxycyclohexyl]propan-2-yl]-19-methoxy-15,17,21,23,29,35-hexamethyl-30-[(oxetan-3-yl)methoxy]-11,36-dioxa-4-azatricyclo[30.3.1.04,9]hexatriaconta-16,24,26,28-tetraene-2,3,10,14,20-pentone] | – | < 0.3 | 500 to 1100 | < 0.8
COCCO[C@@H]1C[C@@H]2CC[C@@H](C)[C@@](O)(O2)C(=O)C(=O)N2CCCC[C@H]2C(=O)O[C@H]([C@H](C)C[C@@H]2CC[C@@H](OCCCN3CCN(C)CC3)[C@H](OC)C2)CC(=O)[C@H](C)/C=C(\C)[C@@H](O)[C@@H](OC)C(=O)[C@H](C)C[C@H](C)/C=C/C=C/C=C/1C [Compound 32, (1R,9S,12S,15R,16E,18R,19R,21R,23S,24E,26E,28E,30R,32S,35R)-1,18-dihydroxy-19-methoxy-30-(2-methoxyethoxy)-12-[(1R)-2-[(1S,3R,4R)-3-methoxy-4-[3-(4-methylpiperazin-1-yl)propoxy]cyclohexyl]-1-methyl-ethyl]-15,17,21,23,29,35-hexamethyl-11,36-dioxa-4-azatricyclo[30.3.1.04,9]hexatriaconta-16,24,26,28-tetraene-2,3,10,14,20-pentone] | – | 0.3 to 1 | > 1100 | > 1.5
CO[C@@H]1C[C@H](C[C@@H](C)[C@@H]2CC(=O)[C@H](C)/C=C(\C)[C@@H](O)[C@@H](OC)C(=O)[C@H](C)C[C@H](C)/C=C/C=C/C=C(\C)[C@@H](OCCCCO)C[C@@H]3CC[C@@H](C)[C@@](O)(O3)C(=O)C(=O)N3CCCC[C@H]3C(=O)O2)CC[C@H]1OCCCN1CCOCC1 [Compound 426, (1R,9S,12S,15R,16E,18R,19R,21R,23S,24E,26E,28E,30S,32S,35R)-1,18-dihydroxy-30-(4-hydroxybutoxy)-19-methoxy-12-[(1R)-2-[(1S,3R,4R)-3-methoxy-4-(3-morpholinopropoxy)cyclohexyl]-1-methyl-ethyl]-15,17,21,23,29,35-hexamethyl-11,36-dioxa-4-azatricyclo[30.3.1.0^4,9]hexatriaconta-16,24,26,28-tetraene-2,3,10,14,20-pentone] | – | < 0.3 | 500 to 1100 | 0.8 to 1.5
CO[C@@H]1C[C@H](C[C@@H](C)[C@@H]2CC(=O)[C@H](C)/C=C(\C)[C@@H](O)[C@@H](OC)C(=O)[C@H](C)C[C@H](C)/C=C/C=C/C=C(\C)[C@@H](OCC3COC3)C[C@@H]3CC[C@@H](C)[C@@](O)(O3)C(=O)C(=O)N3CCCC[C@H]3C(=O)O2)CC[C@H]1OCCO [Compound 474, (1R,9S,12S,15R,16E,18R,19R,21R,23S,24E,26E,28E,30S,32S,35R)-1,18-dihydroxy-12-[(1R)-2-[(1S,3R,4R)-4-(2-hydroxyethoxy)-3-methoxy-cyclohexyl]-1-methyl-ethyl]-19-methoxy-15,17,21,23,29,35-hexamethyl-30-(oxetan-3-ylmethoxy)-11,36-dioxa-4-azatricyclo[30.3.1.04,9]hexatriaconta-16,24,26,28-tetraene-2,3,10,14,20-pentone] | – | 0.3 to 1 | 500 to 1100 | < 0.8
CO[C@@H]1C[C@H](C[C@@H](C)[C@@H]2CC(=O)[C@H](C)/C=C(\C)[C@@H](O)[C@@H](OC)C(=O)[C@H](C)C[C@H](C)/C=C/C=C/C=C(\C)[C@H](OCCc3ccccc3)C[C@@H]3CC[C@@H](C)[C@@](O)(O3)C(=O)C(=O)N3CCCCC3C(=O)O2)CC[C@H]1O (stereo partly drawn) [Compound 121, (1R,9S,12S,15R,16E,18R,19R,21R,23S,24E,26E,28E,30R,32S,35R)-1,18-dihydroxy-12-[(1R)-2-[(I S,3R,4R)-4-hydroxy-3-methoxy-cyclohexyl]-1-methyl-ethyl]-19-methoxy-15,17,21,23,29,35-hexamethyl-30-(2-phenylethoxy)-11,36-dioxa-4-azatricyclo[30.3.1.04,9]hexatriaconta-16,24,26,28-tetraene-2,3,10,14,20-pentone] | – | > 1 | < 500 | 0.8 to 1.5
CO[C@@H]1C[C@H](C[C@@H](C)[C@@H]2CC(=O)[C@H](C)/C=C(\C)[C@@H](O)[C@@H](OC)C(=O)[C@H](C)C[C@H](C)/C=C/C=C/C=C(\C)[C@@H](OCCc3ccccc3)C[C@@H]3CC[C@@H](C)[C@@](O)(O3)C(=O)C(=O)N3CCCC[C@H]3C(=O)O2)CC[C@H]1O [Compound 520, (1R,9S,12S,15R,16E,18R,19R,21R,23S,24E,26E,28E,30S,32S,35R)-1,18-dihydroxy-12-[(1R)-2-[(1S,3R,4R)-4-hydroxy-3-methoxy-cyclohexyl]-1-methyl-ethyl]-19-methoxy-15,17,21,23,29,35-hexamethyl-30-(2-phenylethoxy)-11,36-dioxa-4-azatricyclo[30.3.1.04,9]hexatriaconta-16,24,26,28-tetraene-2,3,10,14,20-pentone] | – | > 1 | < 500 | < 0.8
